Experimental data from ChEMBL document CHEMBL4334544, “BRM Targeting Compounds for the Potential Treatment of Cancer” (ACS Med Chem Lett, 2020).

How the values were obtained:
[1] = target: T1, von Hippel-Lindau disease tumor suppressor/SWI/SNF-related matrix-associated actin-dependent regulator of chromatin subfamily A member 4 (Homo sapiens, UniProt P51532+P40337); assay: Protac activity at E3 ubiquitin ligase/BRG1 (unknown origin) assessed as E3 ubiquitin ligase mediated BRG1 degradation
Target sequence in this assay (P51532 whole entry): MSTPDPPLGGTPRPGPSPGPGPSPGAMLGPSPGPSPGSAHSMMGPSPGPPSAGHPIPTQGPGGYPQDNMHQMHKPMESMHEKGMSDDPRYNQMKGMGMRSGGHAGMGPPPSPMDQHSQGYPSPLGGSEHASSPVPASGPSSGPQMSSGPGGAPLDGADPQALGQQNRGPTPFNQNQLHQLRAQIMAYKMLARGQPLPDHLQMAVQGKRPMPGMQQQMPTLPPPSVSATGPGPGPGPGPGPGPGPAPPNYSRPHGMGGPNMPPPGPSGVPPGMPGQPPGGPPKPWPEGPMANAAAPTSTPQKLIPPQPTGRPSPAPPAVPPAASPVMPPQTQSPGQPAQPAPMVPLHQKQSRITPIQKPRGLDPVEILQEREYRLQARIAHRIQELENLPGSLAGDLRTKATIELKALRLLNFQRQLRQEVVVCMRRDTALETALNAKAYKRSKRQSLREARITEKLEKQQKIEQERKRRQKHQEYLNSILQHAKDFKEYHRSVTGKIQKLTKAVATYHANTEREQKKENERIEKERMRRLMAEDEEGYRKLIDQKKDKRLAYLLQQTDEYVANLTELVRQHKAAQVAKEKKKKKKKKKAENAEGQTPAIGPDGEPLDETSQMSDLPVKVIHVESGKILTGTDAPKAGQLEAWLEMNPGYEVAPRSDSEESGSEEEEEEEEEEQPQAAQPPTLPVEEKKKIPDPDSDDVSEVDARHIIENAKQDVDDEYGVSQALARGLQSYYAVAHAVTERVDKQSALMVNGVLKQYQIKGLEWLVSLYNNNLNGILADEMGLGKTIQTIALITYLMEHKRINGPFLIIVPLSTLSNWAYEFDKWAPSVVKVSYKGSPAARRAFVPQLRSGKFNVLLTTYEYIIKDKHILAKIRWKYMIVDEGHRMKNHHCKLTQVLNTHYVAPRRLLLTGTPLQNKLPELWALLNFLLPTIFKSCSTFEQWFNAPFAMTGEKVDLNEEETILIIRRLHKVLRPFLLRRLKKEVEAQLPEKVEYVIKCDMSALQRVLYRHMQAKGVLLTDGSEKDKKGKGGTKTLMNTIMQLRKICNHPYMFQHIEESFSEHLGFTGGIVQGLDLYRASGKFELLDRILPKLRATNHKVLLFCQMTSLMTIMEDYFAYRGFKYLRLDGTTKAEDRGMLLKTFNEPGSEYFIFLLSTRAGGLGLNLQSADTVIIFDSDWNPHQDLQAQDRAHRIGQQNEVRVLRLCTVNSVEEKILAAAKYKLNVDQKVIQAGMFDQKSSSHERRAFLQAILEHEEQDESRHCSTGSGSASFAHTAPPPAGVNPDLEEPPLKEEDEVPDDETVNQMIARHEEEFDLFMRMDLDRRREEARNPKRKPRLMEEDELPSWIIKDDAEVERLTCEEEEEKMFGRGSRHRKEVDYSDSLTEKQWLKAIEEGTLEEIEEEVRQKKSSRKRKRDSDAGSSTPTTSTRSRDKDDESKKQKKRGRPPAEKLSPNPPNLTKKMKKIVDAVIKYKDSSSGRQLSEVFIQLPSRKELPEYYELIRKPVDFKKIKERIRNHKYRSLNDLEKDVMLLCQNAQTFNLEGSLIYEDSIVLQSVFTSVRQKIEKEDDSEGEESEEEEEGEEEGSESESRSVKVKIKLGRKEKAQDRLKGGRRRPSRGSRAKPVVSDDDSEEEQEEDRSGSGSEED
Target sequence in this assay (P40337 whole entry): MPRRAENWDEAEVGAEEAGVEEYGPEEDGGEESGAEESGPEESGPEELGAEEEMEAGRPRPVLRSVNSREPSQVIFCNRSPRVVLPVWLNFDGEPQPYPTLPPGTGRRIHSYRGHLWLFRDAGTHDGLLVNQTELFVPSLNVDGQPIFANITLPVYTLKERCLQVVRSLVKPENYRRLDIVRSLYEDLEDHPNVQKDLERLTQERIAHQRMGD

[2] = target: T2, Protein cereblon/SWI/SNF-related matrix-associated actin-dependent regulator of chromatin subfamily A member 2 (Homo sapiens, UniProt P51531+Q96SW2); assay: Protac activity at E3 ubiquitin ligase/BRM in human SW1573 cells assessed as E3 ubiquitin ligase-mediated BRM degradation incubated for 18 to 20 hrs by Western blot analysis; type: cell-based
[3] = target: T1, von Hippel-Lindau disease tumor suppressor/SWI/SNF-related matrix-associated actin-dependent regulator of chromatin subfamily A member 4; assay: Protac activity at E3 ubiquitin ligase/BRG1 (unknown origin) assessed as E3 ubiquitin ligase mediated BRG1 degradation at 0.3 to 10 uM relative to control
Target sequence in this assay (P40337 whole entry, looked up): as the sequence (P40337 whole entry) above
Target sequence in this assay (P51532 whole entry, looked up): as the sequence (P51532 whole entry) above

[4] = target: T2, Protein cereblon/SWI/SNF-related matrix-associated actin-dependent regulator of chromatin subfamily A member 2; assay: Protac activity at E3 ubiquitin ligase/BRM in human SW1573 cells assessed as E3 ubiquitin ligase-mediated BRM degradation at 0.3 to 10 uM incubated for 18 to 20 hrs by Western blot analysis relative to control; type: cell-based

T2 sequence (P51531 whole entry): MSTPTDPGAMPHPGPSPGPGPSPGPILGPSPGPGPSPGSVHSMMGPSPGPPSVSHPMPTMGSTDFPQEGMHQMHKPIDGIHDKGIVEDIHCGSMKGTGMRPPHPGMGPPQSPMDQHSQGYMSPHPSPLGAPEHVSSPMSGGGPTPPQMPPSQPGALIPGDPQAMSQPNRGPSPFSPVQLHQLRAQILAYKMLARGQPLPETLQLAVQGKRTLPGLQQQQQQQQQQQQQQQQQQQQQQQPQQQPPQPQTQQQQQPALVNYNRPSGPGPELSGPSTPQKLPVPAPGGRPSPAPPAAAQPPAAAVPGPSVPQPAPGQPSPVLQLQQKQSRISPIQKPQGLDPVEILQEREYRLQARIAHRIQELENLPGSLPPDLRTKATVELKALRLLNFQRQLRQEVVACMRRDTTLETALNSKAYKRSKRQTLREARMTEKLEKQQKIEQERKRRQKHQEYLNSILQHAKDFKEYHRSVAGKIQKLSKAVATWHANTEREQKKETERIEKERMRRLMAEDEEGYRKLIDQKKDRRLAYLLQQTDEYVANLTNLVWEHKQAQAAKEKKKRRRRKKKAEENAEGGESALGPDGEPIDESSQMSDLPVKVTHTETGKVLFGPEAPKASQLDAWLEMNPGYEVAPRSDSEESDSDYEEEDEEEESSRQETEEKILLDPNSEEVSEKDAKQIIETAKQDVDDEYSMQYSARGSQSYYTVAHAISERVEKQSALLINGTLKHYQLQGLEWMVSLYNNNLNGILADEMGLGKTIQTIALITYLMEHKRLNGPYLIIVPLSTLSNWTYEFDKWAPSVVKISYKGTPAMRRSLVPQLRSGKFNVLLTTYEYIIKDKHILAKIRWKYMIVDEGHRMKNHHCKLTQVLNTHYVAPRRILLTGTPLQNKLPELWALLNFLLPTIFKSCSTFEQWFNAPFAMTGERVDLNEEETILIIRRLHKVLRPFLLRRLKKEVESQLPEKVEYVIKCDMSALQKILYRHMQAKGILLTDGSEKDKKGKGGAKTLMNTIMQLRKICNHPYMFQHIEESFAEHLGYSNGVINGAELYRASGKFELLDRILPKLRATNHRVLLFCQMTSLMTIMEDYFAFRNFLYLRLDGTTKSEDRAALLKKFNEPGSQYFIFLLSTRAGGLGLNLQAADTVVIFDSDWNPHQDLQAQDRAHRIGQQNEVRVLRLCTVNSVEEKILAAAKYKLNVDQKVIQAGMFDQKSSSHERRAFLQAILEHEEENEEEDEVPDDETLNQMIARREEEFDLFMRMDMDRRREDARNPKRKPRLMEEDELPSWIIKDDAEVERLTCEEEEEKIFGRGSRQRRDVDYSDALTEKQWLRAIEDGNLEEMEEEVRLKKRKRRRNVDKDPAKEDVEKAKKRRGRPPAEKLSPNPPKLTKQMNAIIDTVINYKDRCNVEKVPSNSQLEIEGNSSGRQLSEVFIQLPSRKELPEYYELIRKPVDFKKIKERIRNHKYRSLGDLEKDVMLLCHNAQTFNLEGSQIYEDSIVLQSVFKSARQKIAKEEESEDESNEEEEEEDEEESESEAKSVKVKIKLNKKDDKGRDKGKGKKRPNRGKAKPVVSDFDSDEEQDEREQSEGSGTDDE
T2 sequence (Q96SW2 whole entry): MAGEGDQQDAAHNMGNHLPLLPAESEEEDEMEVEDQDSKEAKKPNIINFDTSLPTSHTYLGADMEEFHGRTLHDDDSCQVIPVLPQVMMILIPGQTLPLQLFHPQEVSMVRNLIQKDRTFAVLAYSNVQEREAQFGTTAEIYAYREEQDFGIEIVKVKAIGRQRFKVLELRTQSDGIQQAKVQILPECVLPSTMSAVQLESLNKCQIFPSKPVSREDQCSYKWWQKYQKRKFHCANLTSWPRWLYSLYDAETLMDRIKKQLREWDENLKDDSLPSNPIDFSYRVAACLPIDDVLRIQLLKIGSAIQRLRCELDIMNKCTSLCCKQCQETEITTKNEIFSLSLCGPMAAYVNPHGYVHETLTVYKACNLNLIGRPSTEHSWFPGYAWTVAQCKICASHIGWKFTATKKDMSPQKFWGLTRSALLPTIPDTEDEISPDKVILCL

Compound	DC50 [1] [nM]	DC50 [2] [nM]	%max [3] [%]	%max [4] [%]
Cc1ncsc1-c1ccc([C@H](C)NC(=O)[C@@H]2C[C@@H](O)CN2C(=O)[C@@H](c2cc(N3CCC(O[C@H]4C[C@H](Oc5cc(N6C7CCC6CN(c6cc(-c8ccccc8O)nnc6N)C7)ccn5)C4)CC3)no2)C(C)C)cc1	< 2.5	< 2.5	> 75	> 75
Cc1ncsc1-c1ccc([C@H](C)NC(=O)[C@@H]2C[C@@H](O)CN2C(=O)[C@@H](c2cc(C#CCN3CCC(O[C@H]4C[C@H](Oc5cc(N6C7CCC6CN(c6cc(-c8ccccc8O)nnc6N)C7)ccn5)C4)CC3)no2)C(C)C)cc1	2.5 to 10	< 2.5	> 75	> 75
Cc1ncsc1-c1ccc([C@H](C)NC(=O)[C@@H]2C[C@@H](O)CN2C(=O)[C@@H](c2cc(OCCCCN3CCN(CCCCOc4cc(N5C6CCC5CN(c5cc(-c7ccccc7O)nnc5N)C6)ccn4)CC3)no2)C(C)C)cc1	< 2.5	< 2.5	> 75	> 75
Cc1ncsc1-c1ccc([C@H](C)NC(=O)[C@@H]2C[C@@H](O)CN2C(=O)[C@@H](c2cc(OC3CN(CCN4CCC(O[C@H]5C[C@H](Oc6cc(N7C8CCC7CN(c7cc(-c9ccccc9O)nnc7N)C8)ccn6)C5)CC4)C3)no2)C(C)C)cc1	2.5 to 10	< 2.5	> 75	> 75
Cc1ncsc1-c1ccc([C@H](C)NC(=O)[C@@H]2C[C@@H](O)CN2C(=O)[C@@H](c2cc(OCCN3CCC(OC4CN(c5cc(N6C7CCC6CN(c6cc(-c8ccccc8O)nnc6N)C7)ccn5)C4)CC3)no2)C(C)C)cc1	2.5 to 10	< 2.5	> 75	> 75
Cc1ncsc1-c1ccc([C@H](C)NC(=O)[C@@H]2C[C@@H](O)CN2C(=O)[C@@H](c2cc(OCCOCCOc3cc(N4C5CCC4CN(c4cc(-c6ccccc6O)nnc4N)C5)ccn3)no2)C(C)C)cc1	< 2.5	< 2.5	> 75	> 75
